This note sets out measurements from US9232799B2, “N-[(het)arylethyl)] pyrazole(thio)carboxamides and their heterosubstituted analogues” (BAYER INTELLECTUAL PROPERTY GMBH, priority 2010, dated 2016).

The test system of one data set is aflatoxines production. In words: microbe, parasite or virus in culture. The class given is cell-based, Aspergillus parasiticus. The settings on record: 50 μM.
For a further data set, the system named is Fusarium graminearum. As to the kind of experiment: microbe, parasite or virus in culture. In kind it is cell-based. The settings on record: 50 μM.
The next data set relates to Alternaria solani. In words: In vivo preventive test on Alternaria solani (tomato). The settings on record: 500 ppm of active ingredient, evaluated 7 days after inoculation. An excerpt:
One day after this treatment, the plants are inoculated with an aqueous spore suspension of Alternaria solani.

Another data set deals with Pyrenophora teres. In words: In vivo preventive test on Pyrenophora teres (barley). Particulars: 500 ppm of active ingredient, evaluated 7-9 days after inoculation. An excerpt: One day after this treatment, the plants are inoculated with an aqueous spore suspension of Pyrenophora teres.
The nature of data set [1]: logP by HPLC on reversed-phase column (C 18), EEC Directive 79/831 Annex V.A8. The class given is physicochemical. Here is the method:
In table 1, the logP values were determined in accordance with EEC Directive 79/831 Annex V.A8 by HPLC (High Performance Liquid Chromatography) on a reversed-phase column (C 18), using the method described below: Temperature: 40° C.; […]

Each structure is given as a SMILES string.

Turning to `Cn1nc(C(F)F)c(C(=O)NC[Si](C)(C)c2cc(Cl)cc(Cl)c2)c1Cl` [Example 243], in the data set on aflatoxines production, the “% Inhibition of Aflatoxin at 50 μM” value stood at 99%. In addition, in the data set on Fusarium graminearum, the “% Inhibition of fungal growth at 50 μM” value is 84%. The Efficacy in the data set with Alternaria solani is reported as 95%; in the data set with Pyrenophora teres, 100%. The lipophilicity (logP) (as a rule, the decadic logarithm of the partition coefficient of the neutral form, usually between octanol and water) in data set [1] turned out to be 4.27.

In the case of `CC(CNC(=O)c1c(C(F)F)nn(C)c1F)c1ccccc1Cl` (centres unmarked) [Example 39], the “% Inhibition of Aflatoxin at 50 μM” value with aflatoxines production stood at 100%. In addition, the “% Inhibition of fungal growth at 50 μM” value with Fusarium graminearum came out at 100%. The Efficacy in the data set on Alternaria solani and with Pyrenophora teres was 100% in each case. The compound also had a logP in data set [1] of 2.94.

Take `Cn1nc(C(F)F)c(C(=O)NCCc2ncc(C(F)(F)F)cc2Cl)c1Cl` [Example 191]: the “% Inhibition of Aflatoxin at 50 μM” value with aflatoxines production was determined as 100%. Also, the “% Inhibition of fungal growth at 50 μM” value in the data set with Fusarium graminearum is on record as 100%. Also, the values for the Efficacy in the data set on Alternaria solani and in the data set on Pyrenophora teres were 94% and 100%, respectively. The same compound registered a log partition coefficient (logP) in data set [1] of 2.97.

For the compound `CN(CCc1ccccc1)C(=O)c1c(C(F)F)nn(C)c1Cl` [Example 9], the Efficacy in the data set on Alternaria solani and in the data set with Pyrenophora teres was 95% in each case. In data set [1], the logP is 2.60.

`Cn1nc(C(F)F)c(C(=O)NCCc2ccccc2Oc2ccccc2)c1F` [Example 140]: the Efficacy in the data set on Alternaria solani is 100%; in the data set on Pyrenophora teres, 95%. The compound further came in with a lipophilicity (logP) in data set [1] of 3.48.

Consider `Cn1nc(C(F)F)c(C(=O)NCCc2csc3c2CCCC3)c1F` [Example 170], for which the “% Inhibition of Aflatoxin at 50 μM” value in the data set with aflatoxines production is on record as 100%. Also, the “% Inhibition of fungal growth at 50 μM” value in the data set on Fusarium graminearum is listed as 95%. The same compound yielded a lipophilicity (logP) in data set [1] of 3.31.

For the compound `CC(Cc1c(F)cccc1F)N(C(=O)c1c(C(F)F)nn(C)c1Cl)C1CC1` (centres unmarked) [Example 27], the Efficacy in the data set with Alternaria solani and in the data set on Pyrenophora teres was 95% in each case. This compound showed a lipophilicity (logP) in data set [1] of 3.57.

On to `Cn1nc(C(F)F)c(C(=O)NC2CCCCC2c2ccccc2)c1F` (centres unmarked) [Example 212], for which the “% Inhibition of Aflatoxin at 50 μM” value with aflatoxines production amounted to 100%. Further, the “% Inhibition of fungal growth at 50 μM” value with Fusarium graminearum came to 99%. In the data set with Alternaria solani, this compound displayed an Efficacy of 89%. For the same compound, the logP in data set [1] worked out at 3.13.

For the compound `Cn1nc(C(F)F)c(C(=O)NC(C)(C)Cc2cccc(Oc3ccccc3)c2)c1F` [Example 142], the figures for the Efficacy with Alternaria solani and in the data set with Pyrenophora teres were 90% and 78%, respectively. The compound further displayed a logP in data set [1] of 4.09.

`Cn1nc(C(F)F)c(C(=O)NCCc2ccccc2C(F)(F)F)c1Cl` [Example 122]: the values for the Efficacy in the data set on Alternaria solani and in the data set with Pyrenophora teres were 95% and 94%, respectively. In data set [1], this compound came in with a logP of 3.11.

In the case of `CN(CC(=O)c1ccc(Cl)cc1)C(=O)c1c(C(F)F)nn(C)c1F` [Example 61], the “% Inhibition of Aflatoxin at 50 μM” value with aflatoxines production came out at 100%. Also, the “% Inhibition of fungal growth at 50 μM” value with Fusarium graminearum is reported as 84%. This compound also had an Efficacy in the data set on Alternaria solani of 90%. The logP in data set [1] is listed as 2.53.

In the case of `CN(CCc1ccc(C(C)(C)C)cc1)C(=O)c1c(C(F)F)nn(C)c1Cl` [Example 139], the Efficacy in the data set on Alternaria solani and in the data set on Pyrenophora teres was 90% each time. In data set [1], this compound had a lipophilicity (logP) of 3.96.

Turning to `CC(CN(C)C(=O)c1c(C(F)F)nn(C)c1Cl)c1ccncc1` (centres unmarked) [Example 207], in the data set on aflatoxines production, the “% Inhibition of Aflatoxin at 50 μM” value worked out at 99%. For the same compound, the “% Inhibition of fungal growth at 50 μM” value with Fusarium graminearum was 37%. The log partition coefficient (logP) in data set [1] stood at 1.74.

In the case of `Cn1nc(C(F)F)c(C(=O)NC2CC2c2ccc(F)cc2)c1F` (centres unmarked) [Example 220], the “% Inhibition of Aflatoxin at 50 μM” value in the data set with aflatoxines production turned out to be 100%. Besides, the “% Inhibition of fungal growth at 50 μM” value in the data set on Fusarium graminearum worked out at 81%. The Efficacy with Pyrenophora teres worked out at 100%. In data set [1], the log partition coefficient (logP) stood at 2.59.

For `Cn1nc(C(F)F)c(C(=S)NC[Si](C)(C)c2ccccc2Cl)c1F` [Example 234], the figures for the Efficacy in the data set with Alternaria solani and in the data set on Pyrenophora teres were 70% and 100%, respectively. This compound also had a logP in data set [1] of 4.11.

On to `Cn1nc(C(F)F)c(C(=O)NCC(C)(C)c2ccccc2Cl)c1F` [Example 45], for which the Efficacy in the data set on Alternaria solani is listed as 90%; in the data set with Pyrenophora teres it was 100%. Also, the logP in data set [1] is listed as 3.27.

As to `C#CCOc1cc(C(OC)C(C)NC(=O)c2c(C(F)F)nn(C)c2Cl)ccc1OC` (centres unmarked) [Example 159], in the data set on aflatoxines production, the “% Inhibition of Aflatoxin at 50 μM” value is on record as 98%. In addition, the “% Inhibition of fungal growth at 50 μM” value in the data set on Fusarium graminearum is given as 77%. In data set [1], this compound had a logP of 2.76.

With `COCCN(CCc1ccncc1)C(=O)c1c(C(F)F)nn(C)c1Cl` [Example 202], in the data set with aflatoxines production, the “% Inhibition of Aflatoxin at 50 μM” value is 99%. Also, the “% Inhibition of fungal growth at 50 μM” value with Fusarium graminearum is recorded as 81%. The compound also yielded a logP in data set [1] of 1.69.

For the compound `Cc1scc(CCNC(=O)c2c(C(F)F)nn(C)c2Cl)c1C` [Example 168], the “% Inhibition of Aflatoxin at 50 μM” value in the data set with aflatoxines production came out at 100%. Moreover, the “% Inhibition of fungal growth at 50 μM” value in the data set with Fusarium graminearum is 97%. Also, in data set [1], the log partition coefficient (logP) is listed as 3.02.

On to `Cn1nc(C(F)F)c(C(=O)NCC(C)(C)c2ccc(Cl)cc2)c1F` [Example 63], for which the Efficacy turned out to be 90% with Alternaria solani and 94% in the data set on Pyrenophora teres. The compound further registered a logP in data set [1] of 3.37.

Turning to `CC(Cc1cccc(Cl)c1)NC(=O)c1c(C(F)F)nn(C)c1Cl` (centres unmarked) [Example 48], the Efficacy amounted to 95% with Alternaria solani and 100% with Pyrenophora teres. In addition, the logP in data set [1] amounted to 3.17.

As to `COc1ccc(CCN(C)C(=O)c2c(C(F)F)nn(C)c2F)cc1OC` [Example 129], the “% Inhibition of Aflatoxin at 50 μM” value in the data set on aflatoxines production is given as 90%. Also, the “% Inhibition of fungal growth at 50 μM” value in the data set on Fusarium graminearum was determined as 70%. The compound also returned an Efficacy in the data set with Pyrenophora teres of 90%. Also, in data set [1], the lipophilicity (logP) worked out at 2.04.

Consider `Cn1nc(C(F)F)c(C(=O)NCCc2ccc(Oc3ccccc3)cc2)c1Cl` [Example 155], for which the Efficacy in the data set with Alternaria solani turned out to be 95%; in the data set with Pyrenophora teres it was 100%. Moreover, the logP in data set [1] is reported as 3.60.

Turning to `Cn1nc(C(F)F)c(C(=O)NCC(C)(C)c2cccc(Cl)c2)c1F` [Example 53], the Efficacy worked out at 70% in the data set with Alternaria solani and 94% in the data set with Pyrenophora teres. Also, in data set [1], the logP stood at 3.31.

As to `CC(Cc1ccco1)NC(=O)c1c(C(F)F)nn(C)c1Cl` (centres unmarked) [Example 174], in the data set on aflatoxines production, the “% Inhibition of Aflatoxin at 50 μM” value is listed as 89%. Besides, the “% Inhibition of fungal growth at 50 μM” value with Fusarium graminearum is 76%. The logP in data set [1] is listed as 2.37.

With `Cn1nc(C(F)F)c(C(=O)NCCc2cccc(Oc3ccccc3)c2)c1F` [Example 143], the Efficacy worked out at 95% in the data set with Alternaria solani and 89% in the data set on Pyrenophora teres. In addition, in data set [1], the log partition coefficient (logP) amounted to 3.37.

Consider `CCN(C(=O)c1c(C(F)F)nn(C)c1F)C(C)C(=O)c1ccccc1` (centres unmarked) [Example 17], for which, in the data set with aflatoxines production, the “% Inhibition of Aflatoxin at 50 μM” value amounted to 100%. In addition, the “% Inhibition of fungal growth at 50 μM” value in the data set on Fusarium graminearum stood at 83%. In the data set with Alternaria solani, this compound returned an Efficacy of 80%. Besides, the log partition coefficient (logP) in data set [1] was found to be 2.59.

Take `Cn1nc(C(F)F)c(C(=O)NCCc2ccsc2Br)c1F` [Example 166]: the “% Inhibition of Aflatoxin at 50 μM” value in the data set on aflatoxines production is listed as 100%. Besides, the “% Inhibition of fungal growth at 50 μM” value with Fusarium graminearum is reported as 97%. Also, the logP in data set [1] is recorded as 2.64.

`CC(Cc1ccco1)NC(=O)c1c(C(F)F)nn(C)c1F` (centres unmarked) [Example 173]: the “% Inhibition of Aflatoxin at 50 μM” value in the data set with aflatoxines production worked out at 100%. In addition, in the data set with Fusarium graminearum, the “% Inhibition of fungal growth at 50 μM” value is recorded as 83%. This compound also yielded a log partition coefficient (logP) in data set [1] of 2.20.

With `CC(Cc1c(Cl)cccc1Cl)N(C(=O)c1c(C(F)F)nn(C)c1Cl)C1CC1` (centres unmarked) [Example 116], the Efficacy in the data set with Alternaria solani and in the data set on Pyrenophora teres was 100% in each case. Further, the logP in data set [1] is 4.29.
